Here are results for six molecules from patent publication USRE43632E1, “1,3-propane diol esters and ethers and methods for their use in drug delivery” (Scarista, Ltd., priority 1995, dated 2012).

SMILES strings stand for the structures. Like-named read-outs stand apart in the source and are kept apart here.

Data set [1] relates to ASPC-1 human pancreatic cancer. Description: ASPC-1 human pancreatic cancer transplanted subcutaneously into nude mice. It is filed as in vivo. The procedure:
As a specific example of the therapeutic efficacy of the diesters, the 1,3 GLA-EPA propane diol diester was tested in the treatment of the ASPC-1 human pancreatic -cancer transplanted subcutaneously into nude mice which because they lack thymus function are able to accept foreign transplants without rejection. 15 mice were each injected subcutaneously with 5 million ASPC-1 cells suspended in Matrigel and DMEM buffer. In all animals a tumour developed whose size could be measured using callipers and whose volume could be estimated from the linear dimensions. Tumour size in each animal was measured twice weekly for five weeks. The animals were divided into three groups. 5 animals were used as controls and received 10 g/kg corn oil per day only. 5 animals received 10 g/kg corn oil per day but in addition received two injections per week of a dose of 1.5 g/kg of the GLA-EPA diester. […] The other 5 animals instead of the corn oil received 10 g/kg/day of the GLA-EPA diester. The treatments were continued for three weeks and then the tumours were allowed to grow for a further two weeks before the animals were sacrificed and the tumours excised and weighed. The mean tumour weights were: control group, 1240±290 mg; intravenous GLA-EPA group, 820±180 mg; oral GLA-EPA group, 490±160 mg. […] Thus the diesters are biologically active ways of administering the various fatty acids. The diesters can therefore be reasonably expected to exert the many desirable effects of the fatty acids which have been noted in many publications in the literature (e.g. Horrobin D F, ed., Omega-6 Essential Fatty Acids: Pathophysiology and Roles in Clinical Medicine: Wiley-Liss, New York, 1990.Simopoulos A P et al, eds, Health Effects of Omega-3 Polyunsaturated Fatty Acids in Seafoods, Karger, Basel, 1991. Fats and Oils in Human Nutrition, World Health Organization, Rome, 1994. Unsaturated Fatty Acids: Nutritional and Physiological Significance. British Nutrition Foundation, Chapman and Hall, London, 1992).

The nature of data set [2]: In vivo delivery, release and metabolism of diesters after oral or intravenous administration.
Procedure: (§1) GLA was administered in the form of either GLA-GLA or GLA-EPA and EPA was administered in the form of GLA-EPA or EPA-EPA. The diesters were given either orally by gavage or intravenously in the form of a 20% emulsion made using 2% of oat galactolipid as an emulsifier in doses from about 0.1 to 2.0 g/kg. Animals were killed after 1, 2, 4, 8 and 24 hours and plasma, red cells and liver collected. The presence of the unmetabolised diesters was identified by high pressure liquid chromatography. The presence of fatty acids derived from the diesters and of metabolites of those fatty acids was checked by lipid extraction of the liver, plasma or red cells, by separation of that lipid fraction into triglycerides, phospholipids, cholesterol esters and free fatty acids by thin layer chromatography, by methylation of the fatty acids derived from those separated fractions and by analysis of those fatty acids using gas chromatography using methods well described in standard texts.
For data set [3] the following is noted: in vivo, po.
Procedure: as §1
Data set [4] has as its system normal fibroblast line, a breast cancer line and a malignant melanoma line. The conditions noted are these: all cell lines: normal fibroblast, results set out in EPA-0 675 103; cited from earlier work.
Data set [5] has as its system fasted rats. Description: Gastrointestinal ulceration in fasted rats. The conditions noted are these: indomethacin 5-30 mg/kg or same amount as diester, sacrificed after 24 hours.
Procedure: Doses of indomethacin known to cause gastrointestinal ulceration (5-30 mg/kg) were given to fasted rats either in the form of free indomnethacin or the same amount of indomethacin in a 1,3-propane diol diester with GLA in the other position. The animals were sacrificed after 24 hours and the whole gastrointestinal tract examined for ulceration.

Take `CC/C=C\C/C=C\C/C=C\C/C=C\C/C=C\CCCC(=O)OCCCOC(=O)CCCC/C=C\C/C=C\C/C=C\CCCCC` [GLA-EPA, 1-(z,z,z-Octadeca-6,9,12-trienoyloxy)-3-(z,z,z,z,z-eicosa-5,8,11,14,17-pentaenoyloxy)propane]: in data set [1] (both oral and intravenous administration), the tumour growth entry was “substantially inhibited”. In data set [1] (intravenous, 1.5 g/kg two injections per week for three weeks, 20% emulsion, tumours weighed at five weeks), the mean tumour weight amounted to 820 ± 180 mg. In addition, in data set [1] (mouse, in vivo), the “side effects or distress in the animals” value was “without causing any side effects or distress”. In data set [1] (nude mice, 20% emulsion with 2% oat galactolipid, 1.5 g/kg twice weekly), the “tolerability of the intravenous emulsion” value is “very well tolerated and caused no haemolysis or thrombophlebitis”. Further, the “in vivo release of free GLA and EPA” value in data set [2] (intravenous infusion and oral administration of the diester emulsion) was “rapid in vivo release of free GLA and EPA”.
Turning to `CCCCC/C=C\C/C=C\C/C=C\CCCCC(=O)OCCCOC(=O)CCCC/C=C\C/C=C\C/C=C\CCCCC` [GLA-GLA, 1,3-(di-z,z,z-Octadeca-6,9,12-trienoyloxy)propane], the “absorption and release of active moieties” value (shortened to “absorption and release”) in data set [3] was “absorbed following oral administration and to release their active moieties”.
With `CCCCC/C=C\C/C=C\C/C=C\CCCCC(=O)OCCCOC(=O)Cc1c(C)n(C(=O)c2ccc(Cl)cc2)c2ccc(OC)cc12` [GLA-indomethacin, 1-(z,z,z-Octadeca-6,9,12-trienoyloxy)-3-(I-(4-chlorobenzoyl)-5-methoxy-2-methyl-indole-3-acetyloxy)propane], in data set [3], the “absorption and release” value was “absorbed following oral administration and to release their active moieties”.
`COc1ccc2c(c1)c(CC(=O)O)c(C)n2C(=O)c1ccc(Cl)cc1` [indomethacin, reference compound]: in data set [4], the “intracellular level after incubation (cell penetration)” value is “very low”. The “ulceration of the whole gastrointestinal tract” value in data set [5] is given as “extensive ulceration”.
As to `CCCCC/C=C\C/C=C\C/C=C\CCCCC(=O)OCCCOC(=O)Cc1c(C)n(C(=O)c2ccc(Cl)cc2)c2ccc(OC)cc12` [indomethacin-GLA], in data set [4], the “intracellular level after incubation (cell penetration)” value is “very substantial amounts of both indomethacin-GLA and free indomethacin”.
Take `CCCCCC=CCC=CCC=CCCCCC(=O)OCCCOC(=O)c1cccnc1` [niacin-GLA]: the “absorption and release” value in data set [2] (oral administration) is “absorbed following oral administration and to release their active moieties”.
